Columns and labels:
[1] = biological target: T1, Streptococcus pneumoniae tryptophan-binding protein 31ft (SEQ ID NO: 1) with cpYFP inserted at 263/266, optical sensor 31ft-263/266-cpYFP, SEQ ID NO: 7 (Streptococcus pneumoniae, UniProt A0A0H2UPV6, DELINS312-313[…]); conditions: for response to amino acid (specific detection): specificity, FIG. 7
T1 construct: His-tag; E. coli JM109(DE3), nickel-purified
Protocol: (§1) 3. The centrifuged supernatant was purified by a self-packed nickel-column affinity chromatography column to obtain the protein, and the protein after nickel-column affinity chromatography was then passed through a self-packed desalting column to obtain the protein dissolved in 100 mM HEPES buffer (pH 7.4).

[2] = biological target: T2, Streptococcus pneumoniae tryptophan-binding protein 31ft (SEQ ID NO: 1) with cpYFP inserted at 263/265, optical sensor 31ft-263/265-cpYFP, SEQ ID NO: 6 (Streptococcus pneumoniae, UniProt A0A0H2UPV6, DELINS312-312[…]); conditions: for response to amino acid (specific detection): specificity, FIG. 7
T2 construct: His-tag; pCDF, E. coli JM109(DE3), nickel-column purified
Protocol: as §1

[3] = biological target: T3, Streptococcus pneumoniae tryptophan-binding protein 31ft (SEQ ID NO: 1) with cpYFP inserted at 263/267, optical sensor 31ft-263/267-cpYFP, SEQ ID NO: 8 (Streptococcus pneumoniae, UniProt A0A0H2UPV6, DELINS312-314[…]); assay: Titration and specificity detection, purified sensor 31ft-263/267-cpYFP; conditions: 420/485 fluorescence ratio, concentration gradient tryptophan
T3 construct: His-tag; E. coli JM109(DE3), nickel-purified
Protocol: as §1

[4] = biological target: tryptophan optical sensor (Streptococcus pneumoniae tryptophan-binding protein 31ft fusion) (Streptococcus pneumoniae, UniProt A0A0H2UPV6); assay: Highest response of the tryptophan optical sensor provided in this application; type: biochemical
[5] = biological target: T4, Streptococcus pneumoniae tryptophan-binding protein 31ft with cpYFP inserted at 263/266, mutant T259F, optical sensor 31ft-263/266-cpYFP-T259F, SEQ ID NO: 31 (Streptococcus pneumoniae, UniProt A0A0H2UPV6, DELINS312-313[…]/T307F); assay: Fluorescence spectra and tryptophan response of purified 31ft-263/266-cpYFP-T259F; type: biochemical
T4 construct: His-tag; E. coli, purified
Protocol: 6. […] The determination of the absorption spectrum and fluorescence spectrum of the sample is completed by a spectrophotometer and a fluorescence spectrophotometer.
Detection of fluorescence spectra was performed using a fluorescence spectrophotometer after subjecting purified tryptophan optical sensor 31ft-263/266-cpYFP-T259F to 0 mM and 1 mM tryptophan treatments for 10 min, respectively.
Determination of emission spectra: excitation spectra were recorded with an fixed excitation wavelength of 420 nm and 485 nm and an emission range of 470-600 nm and 490-600 nm, read every 5 nm.

[6] = system: Streptococcus pneumoniae 31ft-cpYFP optical sensor mutants L84F, F202W, K214F, K214W, Y217F, Y217W, K255F, K255W, T259F, T259W, I283F and I283W; assay: Fluorescence detection of purified mutated cpYFP optical sensors; type: biochemical; conditions: purified proteins; FIG. 8
Protocol: The plasmids pCDF-31ft-263/265-cpYFP, pCDF-31ft-263/266-cpYFP, pCDF-31ft-263/267-cpYFP were linearized by PCR with the primers containing the base sequence of the desired mutation site.
Phosphorus was added to the obtained PCR products under the action of PNK, T4 DNA ligase and PEG4000, thereby obtaining mutant plasmids of 15 sites of H13, T71, L84, D93, K105, N117, T130, V170, V192, F202, K214, Y217, K255, T259, 1283, and the sequencing was completed by Jie Li Sequencing Company. An exemplary nucleic acid sequence is set forth in SEQ ID NO:40 (263/266-T259F).

[7] = biological target: T5, Streptococcus pneumoniae tryptophan-binding protein 31ft (SEQ ID NO: 1) with cpGFP (SEQ ID NO: 3) inserted at 263/265 (Streptococcus pneumoniae, UniProt A0A0H2UPV6, DEL312-312); assay: Tryptophan response screening, disrupted supernatant, cpGFP 263/265; type: biochemical; conditions: method of Example 2 (1 mM tryptophan)
T5 construct: E. coli disrupted supernatant
Protocol: (§2) Tryptophan response screening was performed with disrupted supernatants of E. coli expressing the 31ft-cpYFP fusion protein, and the detection signal of the fusion fluorescent protein containing 1 mM tryptophan was divided by the detection signal of the fusion fluorescent protein without tryptophan.
(§3) According to the method in Example 2, cpYFP was replaced with cpGFP to construct a tryptophan green fluorescent protein fluorescent sensor.

[8] = biological target: T6, Streptococcus pneumoniae tryptophan-binding protein 31ft (SEQ ID NO: 1) with cpYFP inserted at 263/267, SEQ ID NO: 8 (Streptococcus pneumoniae, UniProt A0A0H2UPV6, DELINS312-314[…]); assay: Tryptophan response screening, disrupted supernatant, cpYFP 263/267; type: biochemical; conditions: 1 mM tryptophan, disrupted supernatant of E. coli
T6 construct: His-tag; E. coli JM109(DE3), disrupted supernatant
Protocol: as §2

[9] = biological target: T7, Streptococcus pneumoniae tryptophan-binding protein 31ft (SEQ ID NO: 1) with cpYFP inserted at 263/268, SEQ ID NO: 9 (Streptococcus pneumoniae, UniProt A0A0H2UPV6, DELINS312-315[…]); assay: Tryptophan response screening, disrupted supernatant, cpYFP 263/268; type: biochemical; conditions: 1 mM tryptophan, disrupted supernatant of E. coli
T7 construct: His-tag; E. coli JM109(DE3), disrupted supernatant
Protocol: as §2

[10] = biological target: T8, Streptococcus pneumoniae tryptophan-binding protein 31ft (SEQ ID NO: 1) with cpYFP inserted at 263/266, SEQ ID NO: 7 (Streptococcus pneumoniae, UniProt A0A0H2UPV6, DELINS312-313[…]); assay: Tryptophan response screening, disrupted supernatant, cpYFP 263/266; type: biochemical; conditions: 1 mM tryptophan, disrupted supernatant of E. coli
T8 construct: His-tag; E. coli JM109(DE3), disrupted supernatant
Protocol: as §2

HeLa cells = assay: Dynamic monitoring of tryptophan transmembrane transport in HeLa cells expressing the optical sensor in the cytosol; type: cell-based; conditions: 1 mM tryptophan, 30 min, HBSS
Protocol: 1. The pCDNA3.1+-based tryptophan optical sensor plasmid was transfected into HeLa by the transfection reagent Lipofectamine2000 (Invitrogen), and cultured in a cell incubator at 37° C., 5% CO2. Fluorescence detection was performed 24-36 h after the exogenous gene was fully expressed.
2. After induction of expression, adherent HeLa cells were washed three times with PBS and placed in HMS solution for fluorescence microscopy and microplate reader assays, respectively.
Add 1 mM tryptophan and continue the assay for 30 minutes.

[11] = biological target: T9, Streptococcus pneumoniae tryptophan-binding protein 31ft (SEQ ID NO: 1) with cpGFP (SEQ ID NO: 3) inserted at 263/268 (Streptococcus pneumoniae, UniProt A0A0H2UPV6, DEL312-315); assay: Tryptophan response screening, disrupted supernatant, cpGFP 263/268; type: biochemical; conditions: method of Example 2 (1 mM tryptophan)
T9 construct: E. coli disrupted supernatant
Protocol: as §2, §3

[12] = biological target: T10, Streptococcus pneumoniae tryptophan-binding protein 31ft (SEQ ID NO: 1) with cpGFP (SEQ ID NO: 3) inserted at 263/267 (Streptococcus pneumoniae, UniProt A0A0H2UPV6, DEL312-314); assay: Tryptophan response screening, disrupted supernatant, cpGFP 263/267; type: biochemical; conditions: method of Example 2 (1 mM tryptophan)
T10 construct: E. coli disrupted supernatant
Protocol: as §2, §3

[13] = biological target: T11, Streptococcus pneumoniae tryptophan-binding protein 31ft (SEQ ID NO: 1) with cpYFP inserted at 263/268, optical sensor 31ft-263/268-cpYFP, SEQ ID NO: 9 (Streptococcus pneumoniae, UniProt A0A0H2UPV6, DELINS312-315[…]); assay: Titration and specificity detection, purified sensor 31ft-263/268-cpYFP; conditions: 420/485 fluorescence ratio, concentration gradient tryptophan
T11 construct: His-tag; E. coli JM109(DE3), nickel-purified
Protocol: as §1

[14] = biological target: T12, Streptococcus pneumoniae tryptophan-binding protein 31ft (SEQ ID NO: 1) with cpGFP (SEQ ID NO: 3) inserted at 263/266 (Streptococcus pneumoniae, UniProt A0A0H2UPV6, DEL312-313); assay: Tryptophan response screening, disrupted supernatant, cpGFP 263/266; type: biochemical; conditions: method of Example 2 (1 mM tryptophan)
T12 construct: E. coli disrupted supernatant
Protocol: as §2, §3

[15] = biological target: T13, Streptococcus pneumoniae tryptophan-binding protein 31ft (SEQ ID NO: 1) with cpYFP inserted at 263/265, SEQ ID NO: 6 (Streptococcus pneumoniae, UniProt A0A0H2UPV6, DELINS312-312[…]); assay: Tryptophan response screening, disrupted supernatant, cpYFP 263/265; type: biochemical; conditions: 1 mM tryptophan, disrupted supernatant of E. coli
T13 construct: His-tag; pCDF, E. coli JM109(DE3) disrupted supernatant
Protocol: as §2

[16] = 420/485 fluorescence ratio, concentration gradient tryptophan

Structure (SMILES)	response to amino acid (specific detection) [1]	response to amino acid (specific detection) [2]	change amplitude [1, 16]	change amplitude [2, 16]	change amplitude [3]	highest response to tryptophan, increase of the control [4]	decrease in fluorescence intensity under excitation at 460 nm, compared to 0 mM tryptophan ([5]; 1 mM tryptophan, 10 min)	fluorescence intensity excited at 420 nm, relative to 0 mM tryptophan ([5]; 1 mM tryptophan, 10 min)	response to tryptophan ([5]; purified protein)	response to tryptophan [6]	response to tryptophan [7]	response to tryptophan (signal with / without tryptophan) [8]	response to tryptophan (signal with / without tryptophan) [9]	response to tryptophan (signal with / without tryptophan) [10]	highest 485/420 ratio relative to the initial value (HeLa cells)	response to tryptophan [11]	response to tryptophan [12]	change amplitude [13]	response to tryptophan [14]	response to tryptophan (signal with / without tryptophan) [15]
N[C@@H](Cc1ccccc1)C(=O)O [phenylalanine]	1.34 times	1.37 times																		
N[C@@H](Cc1c[nH]c2ccccc12)C(=O)O [tryptophan, L-tryptophan]			5.3 times	4.2 times	3.3 times	more than 9 fold	0.26 fold	1.1 times	more than 2.5 fold	more than 2.5 times	more than 1.5 times	more than 1.5 times	more than 1.5 times	more than 1.5 times	1.3 times	more than 1.5 times	more than 1.5 times	3.0 times	more than 1.5 times	more than 1.5 times
N[C@@H](Cc1ccc(O)cc1)C(=O)O [tyrosine]	1.26 times	1.25 times																		
